Source: patent US20260184691A1, “INHIBITORS AND DEGRADERS OF PIP4K PROTEIN” (Larkspur Biosciences, Inc., priority 2022, published 2026)
pIC50: −log10 of the molar value.

Each molecule was assayed against T1, Human PIP4K2C (Homo sapiens, UniProt Q8TBX8) (assay: Enzyme binding assay (KINOMEscan), active site-directed competition binding). Conditions: 11-point dose response, duplicate, top concentration 5 micromolar; read-out: Pip4k2c Kd: IC50.
T1 construct: purchased Eurofins DiscoverX 87-0007-1094
T1 sequence (Q8TBX8 1-421): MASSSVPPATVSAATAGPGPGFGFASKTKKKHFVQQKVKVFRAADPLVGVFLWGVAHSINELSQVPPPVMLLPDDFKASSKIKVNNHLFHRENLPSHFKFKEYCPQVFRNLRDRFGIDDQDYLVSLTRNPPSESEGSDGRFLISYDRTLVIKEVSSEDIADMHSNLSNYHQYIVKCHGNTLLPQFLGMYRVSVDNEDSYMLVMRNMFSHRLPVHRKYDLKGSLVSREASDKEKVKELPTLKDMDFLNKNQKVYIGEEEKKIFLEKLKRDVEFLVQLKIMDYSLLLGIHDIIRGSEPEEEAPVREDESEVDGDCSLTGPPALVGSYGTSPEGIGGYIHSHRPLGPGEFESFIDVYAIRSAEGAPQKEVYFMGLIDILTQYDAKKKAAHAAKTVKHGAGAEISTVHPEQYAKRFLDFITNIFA
Method: PIP4K2C binding constants disclosed herein were determined using the proprietary Human PIP4K2C binding assay (Catalog number 87-0007-1094, Eurofins DiscoverX, San Diego, CA). This assay measures active site-directed competition binding to an immobilized ligand (see https://doi.org/10.1038/nbt1068, herein incorporated by reference in its entirety). Experiments were conducted using an 11-point dose response curve, in duplicate, with a top starting concentration of 5 micromolar; the Levenberg-Marquardt algorithm was used to fit a Hill equation to dose-response data to calculate IC50 values (see Table 5).
With O=C1CCCN1c1cncc(Nc2ncc(Cl)c(-c3cccc(C4CCCCC4)c3)n2)c1 [Compound 19, 1-(5-((5-chloro-4-(3-cyclohexylphenyl)pyrimidin-2-yl)amino)pyridin-3-yl)pyrrolidin-2-one] the pIC50 was > 6.30.
O=C1CCCN1c1cncc(Nc2ncc(Cl)c(-c3ccn(C4CCCC4)n3)n2)c1 [Compound 144, 1-(5-((5-chloro-4-(1-cyclopentyl-1H-pyrazol-3-yl)pyrimidin-2-yl)amino)pyridin-3-yl)pyrrolidin-2-one] was tested, and the pIC50 was > 6.30.
O=C1CCCN1c1cncc(Nc2ncc(Cl)c(-c3ccc(Cl)cc3)n2)c1 [Compound 93, 1-(5-((5-chloro-4-(4-chlorophenyl)pyrimidin-2-yl)amino)pyridin-3-yl)pyrrolidin-2-one] was tested, and the pIC50 was > 6.30.
O=C1CCCN1c1cncc(Nc2ncc(Cl)c(N3CCCCC3)n2)c1 [Compound 96, 1-(5-((5-chloro-4-(piperidin-1-yl)pyrimidin-2-yl)amino)pyridin-3-yl)pyrrolidin-2-one] was tested, and the pIC50 was > 6.30.
O=C1CCCN1c1cncc(Nc2ncc(Cl)c(N3CCc4ccccc4C3)n2)c1 [Compound 128, 1-(5-((5-chloro-4-(3,4-dihydroisoquinolin-2(1H)-yl)pyrimidin-2-yl)amino)pyridin-3-yl)pyrrolidin-2-one] was tested, and the pIC50 was > 6.30.
In the case of O=C1CCCN1c1cncc(Nc2ncc(Cl)c(N3CCOC(c4ccccn4)C3)n2)c1 (stereo not shown) [Compound 134, 1-[5-[[5-chloro-4-[2-(2-pyridyl)morpholin-4-yl]pyrimidin-2-yl]amino]-3-pyridyl]pyrrolidin-2-one], the pIC50 was > 6.30.
With O=C1CCCN1c1cncc(Nc2ncc(Cl)c(N3CCCc4ccccc43)n2)c1 [Compound 127, 1-(5-((5-chloro-4-(3,4-dihydroquinolin-1(2H)-yl)pyrimidin-2-yl)amino)pyridin-3-yl)pyrrolidin-2-one] the pIC50 was > 6.30.
In the case of CC1CC(C)CN(c2nc(Nc3cncc(N4CCCC4=O)c3)ncc2Cl)C1 (stereo not shown) [Compound 115, 1-(5-((5-chloro-4-(3,5-dimethylpiperidin-1-yl)pyrimidin-2-yl)amino)pyridin-3-yl)pyrrolidin-2-one], the pIC50 was > 6.30.
For COc1ccc(-c2nc(Nc3cncc(N4CCCC4=O)c3)ncc2Cl)cc1-c1ccccc1 [Compound 8, 1-(5-((5-chloro-4-(6-methoxy-[1,1′-biphenyl]-3-yl)pyrimidin-2-yl)amino)pyridin-3-yl)pyrrolidin-2-one], the pIC50 was > 6.30.
In the case of O=C1CCCN1c1cncc(Nc2ncc(Cl)c(-c3cccc(C4CCNCC4)c3)n2)c1 [Compound 26, 1-(5-((5-chloro-4-(3-(piperidin-4-yl)phenyl)pyrimidin-2-yl)amino)pyridin-3-yl)pyrrolidin-2-one], the pIC50 was > 6.30.
In the case of O=C(c1cc[nH]c(=O)c1)N1CCCC(c2nc(Nc3cncc(N4CCCC4=O)c3)ncc2Cl)C1 (stereo not shown) [Compound 164, 4-(3-(5-chloro-2-((5-(2-oxopyrrolidin-1-yl)pyridin-3-yl)amino)pyrimidin-4-yl)piperidine-1-carbonyl)pyridin-2(1H)-one], the pIC50 was > 6.30.
For O=C1CCCN1c1cncc(Nc2ncc(Cl)c(N3CCC(N4CCCC4)C3)n2)c1 (stereo not shown) [Compound 37, 1-(5-((4-([1,3′-bipyrrolidin]-1′-yl)-5-chloropyrimidin-2-yl)amino)pyridin-3-yl)pyrrolidin-2-one], the pIC50 was > 6.30.
For O=C1CCCN1c1cncc(Nc2ncc(Cl)c(-c3ccc(Cl)c(-c4ccccc4)c3)n2)c1 [Compound 6, 1-(5-((5-chloro-4-(6-chloro-[1,1′-biphenyl]-3-yl)pyrimidin-2-yl)amino)pyridin-3-yl)pyrrolidin-2-one], the pIC50 was > 6.30.
CC(=O)N1CCCC(c2nc(Nc3cncc(N4CCCC4=O)c3)ncc2Cl)C1 (stereo not shown) [Compound 151, 1-(5-((4-(1-acetylpiperidin-3-yl)-5-chloropyrimidin-2-yl)amino)pyridin-3-yl)pyrrolidine-2-one] was tested, and the pIC50 was > 6.30.
With O=C(C1COC1)N1CCCC(c2nc(Nc3cncc(N4CCCC4=O)c3)ncc2Cl)C1 (stereo not shown) [Compound 160, 1-(5-((5-chloro-4-(1-(oxetane-3-carbonyl)piperidin-3-yl)pyrimidin-2-yl)amino)pyridin-3-yl)pyrrolidin-2-one] the pIC50 was > 6.30.
O=C(c1ccc(F)cc1)N1CCC(c2nc(Nc3cncc(N4CCCC4=O)c3)ncc2Cl)C1 (stereo not shown) [Compound 159, 1-(5-((5-chloro-4-(1-(4-fluorobenzoyl)pyrrolidin-3-yl)pyrimidin-2-yl)amino)pyridin-3-yl)pyrrolidin-2-one] was tested, and the pIC50 was > 6.30.
A pIC50 of 6.00 to 6.30 was found for O=C1CCCN1c1cncc(Nc2ncc(Cl)c(N3C(=O)CC[C@@H]3c3ccccc3)n2)c1 [29, Enant B] in this work.
O=C1CCCN1c1cncc(Nc2ncc(Cl)c(-c3cccc(-c4cccnc4)c3)n2)c1 [Compound 16, 1-(5-((5-chloro-4-(3-(pyridin-3-yl)phenyl)pyrimidin-2-yl)amino)pyridin-3-yl)pyrrolidin-2-one] was tested, and the pIC50 was > 6.30.
With CC(=O)N1CC2(CC(=O)N(c3cncc(Nc4ncc(Cl)c(-c5cccc(-c6ccccc6)c5)n4)c3)C2)C1 [Compound 36, 6-(5-((4-([1,1′-biphenyl]-3-yl)-5-chloropyrimidin-2-yl)amino)pyridin-3-yl)-2-acetyl-2,6-diazaspiro[3.4]octan-7-one] the pIC50 was > 6.30.
O=C1CCCN1c1cncc(Nc2ncc(Cl)c(-c3cccc(C4CCC4)c3)n2)c1 [Compound 39, 1-(5-((5-chloro-4-(3-cyclobutylphenyl)pyrimidin-2-yl)amino)pyridin-3-yl)pyrrolidin-2-one] was tested, and the pIC50 was > 6.30.
In the case of O=C1CCCN1c1cncc(Nc2ncc(Cl)c(N3CCCC(C4CC4)C3)n2)c1 (stereo not shown) [Compound 126, 1-(5-((5-chloro-4-(3-cyclopropylpiperidin-1-yl)pyrimidin-2-yl)amino)pyridin-3-yl)pyrrolidin-2-one], the pIC50 was > 6.30.
COc1cc(-c2ccccc2)cc(-c2nc(Nc3cncc(N4CCCC4=O)c3)ncc2Cl)c1 [Compound 18, 1-(5-((5-chloro-4-(5-methoxy-[1,1′-biphenyl]-3-yl)pyrimidin-2-yl)amino)pyridin-3-yl)pyrrolidin-2-one] was tested, and the pIC50 was > 6.30.
A pIC50 of 6.00 to 6.30 was found for Cc1cc(-c2nc(Nc3cncc(N4CCCC4=O)c3)ncc2Cl)ccn1 [Compound 105, 1-(5-((5-chloro-4-(2-methylpyridin-4-yl)pyrimidin-2-yl)amino)pyridin-3-yl)pyrrolidin-2-one] in this work.
For O=C1CCCN1c1cncc(Nc2ncc(Cl)c(N3CCC[C@@H](c4ccccc4)C3)n2)c1 [Compound 43, (S)-1-(5-((5-chloro-4-(3-phenylpiperidin-1-yl)pyrimidin-2-yl)amino)pyridin-3-yl)pyrrolidin-2-one], the pIC50 was > 6.30.
For O=C1CCCN1c1cncc(Nc2ncc(Cl)c(-c3cnn(C4CCC4)c3)n2)c1 [Compound 137, 1-(5-((5-chloro-4-(1-cyclobutyl-1H-pyrazol-4-yl)pyrimidin-2-yl)amino)pyridin-3-yl)pyrrolidin-2-one], the pIC50 was > 6.30.
O=C1CCCN1c1cncc(Nc2ncc(Cl)c(-c3cccc(C4CC4)c3)n2)c1 [Compound 12, 1-(5-((5-chloro-4-(3-cyclopropylphenyl)pyrimidin-2-yl)amino)pyridin-3-yl)pyrrolidin-2-one] was tested, and the pIC50 was > 6.30.
In the case of O=C1CCCN1c1cncc(Nc2ncc(Cl)c(N3CCCCC3C(F)(F)F)n2)c1 (stereo not shown) [Compound 119, 1-(5-((5-chloro-4-(2-(trifluoromethyl)piperidin-1-yl)pyrimidin-2-yl)amino)pyridin-3-yl)pyrrolidin-2-one], the pIC50 was > 6.30.
With O=C1CCCN1c1ccc(Nc2ncc(F)c(-c3cccc(C4CC4)c3)n2)cn1 [Compound 147, 1-(5-((4-(3-cyclopropylphenyl)-5-fluoropyrimidin-2-yl)amino)pyridin-2-yl)pyrrolidin-2-one] the pIC50 was > 6.30.
In the case of O=C1CCCN1c1cncc(Nc2ncc(Cl)c(-c3cccc(-c4ccccc4Cl)c3)n2)c1 [Compound 14, 1-(5-((5-chloro-4-(2′-chloro-[1,1′-biphenyl]-3-yl)pyrimidin-2-yl)amino)pyridin-3-yl)pyrrolidin-2-one], the pIC50 was > 6.30.
O=C1CCCN1c1cncc(Nc2ncc(Cl)c(N3Cc4ccccc4C3)n2)c1 [Compound 130, 1-(5-((5-chloro-4-(isoindolin-2-yl)pyrimidin-2-yl)amino)pyridin-3-yl)pyrrolidin-2-one] was tested, and the pIC50 was > 6.30.
In the case of O=C1CCCN1c1cncc(Nc2ncc(Cl)c(N3CCCC(C4CCC4)C3)n2)c1 (stereo not shown) [Compound 123, 1-(5-((5-chloro-4-(3-cyclobutylpiperidin-1-yl)pyrimidin-2-yl)amino)pyridin-3-yl)pyrrolidin-2-one], the pIC50 was > 6.30.
With Cc1ccccc1-c1cccc(-c2nc(Nc3cncc(N4CCCC4=O)c3)ncc2Cl)c1 [Compound 15, 1-(5-((5-chloro-4-(2′-methyl-[1,1′-biphenyl]-3-yl)pyrimidin-2-yl)amino)pyridin-3-yl)pyrrolidin-2-one] the pIC50 was > 6.30.
With CN1CCC(c2cccc(-c3nc(Nc4cncc(N5CCCC5=O)c4)ncc3Cl)c2)CC1 [Compound 27, 1-(5-((5-chloro-4-(3-(1-methylpiperidin-4-yl)phenyl)pyrimidin-2-yl)amino)pyridin-3-yl)pyrrolidin-2-one] the pIC50 was > 6.30.
For O=C1CCCN1c1cncc(Nc2ncc(Cl)c(N3CCOC(c4ccccc4)C3)n2)c1 (stereo not shown) [Compound 41, 1-[5-[[5-chloro-4-(2-phenylmorpholin-4-yl)pyrimidin-2-yl]amino]-3-pyridyl]pyrrolidin-2-one], the pIC50 was > 6.30.
